Test results as given in paper PMC11345766, “Computational Design of Pore-Forming Peptides with Potent Antimicrobial and Anticancer Activities” (Journal of Medicinal Chemistry, 2024).
Ends that are not written are not given here.

How the values were obtained:
[1] = test system: A. baumannii (NCTC 13301); assay: Murine excisional dorsal wound infection model; type: in vivo, mouse; settings: for Survival: day 3 postinfection
Experimental: To investigate wound-healing applications, two peptides (LP1 and LP18) were tested in a murine wound infection model.[57] Immunosuppressed mice were infected with 5 × 10^4 cells per mL of A. baumannii (NCTC 13301) at the excised dorsal wound. The peptides at 1000 times the MICs (∼10 mg/kg) were applied directly to the wound by puncturing the dressing with a syringe once a day for 7 days. After removal of the dressing, necrosis of the epidermal tissue at the wound edges and wound expansion were observed. These conditions were reduced in the LP1-treated group, followed by the LP18-treated, PBS-treated, and untreated groups (Figure S6a,b). Contractile wound healing appeared to be higher in the LP1-treated group compared to the other groups. After 20 days, LP1-treated wounds were either completely closed or had less than 10 mm^2 of overlying serocellular crust, whereas the other wounds had larger and more inflamed serocellular crusts.
Eight-to-ten-week-old female Balb/c mice (obtained from Envigo, Netherlands) were subjected to immunosuppression induction by two intraperitoneal doses of 150 and 100 mg/kg cyclophosphamide on days −4 and −1, respectively, before wounding. On day 0 of wounding, mice were anesthetized with isoflurane and the dorsal region was shaved and scrubbed with iodine solution. A full-thickness skin defect was created over the thoracic spine using a 6 mm disposable skin biopsy punch (KAI Industries Co., Ltd., Japan). Infection was established by applying 25 μL of A. baumannii NCTC 13301 (5 × 10^4 CFU/mL) applied directly to the wound and allowed to absorb for 2 min. Wound was covered with a transparent sterile dressing (Tegaderm, Deutschland GmbH, Germany) and secured with tissue adhesive (Surgibond, SMI AG, Belgium). Afterward, mice received an intramuscular injection of buprenorphine (0.05 mg/kg). […] From 10^–3, 10^–5, and 10^–7 dilutions, 100 μL of the sample was collected three times, incubated on MacConkey agar plates (Trios, Czech Republic), and analyzed for viable cell counts. […]

[2] = test system: HL-60, K-562, MCF-7 and HCT-116 cells; assay: Viability by flow cytometry DiOC6/7AAD staining, effect of pH and media; type: cell-based, human; settings: 10 μM, 1 h; RPMI, DMEM, PBS at pH 8, 7, 6 and ∼7.6
Experimental: To investigate the effect of pH and media on anticancer activity, we further tested the peptides against four cell lines, HL-60, K-562, and MCF-7, and the colon cancer cells HCT-116, cultured in three different media, namely, RPMI, DMEM, and PBS, each adjusted to three different pH values 8, 7, and 6, and additionally one case without pH adjustment (∼7.6) (Figure 6c). To avoid pH changes due to the natural buffering of the CO2-bicarbonate system used in cell culture, the peptides were tested at a concentration of 10 μM for only 1 h, as the cell lysis effect was already apparent within 30 min of exposure (Figure S9d).
Effects of pH and culture medium on the anticancer activity of peptides against acute myeloid leukemia HL-60, chronic myeloid leukemia K-562, breast adenocarcinoma MCF-7, and colon cancer cells HCT-116 cultured in three different media RPMI (#21875034, Gibco), DMEM (#LM-D1110/500, Biosera), and PBS adjusted to three different pH values 8, 7, and 6, and a medium without pH adjustment (∼7.6), were tested using flow cytometry DiOC6/7AAD (3,3-dihexyloxacarbocyanine iodide/7-amino-actinomycin D) staining assay, as described previously.[102] Media pH was adjusted twice, i.e., 1 day before the experiment and immediately before the experiment. Medium was supplemented with 10% heat-inactivated FBS, glutamine, sodium pyruvate, and antibiotics (100 U/mL penicillin and 100 μg/mL streptomycin). […] To determine cell viability, cells were incubated with DiOC6 (Thermo Fisher Scientific) and 7AAD (Thermo Fisher Scientific) for 15 min at 37 °C and cell viability was measured using a BriCyte E6 flow cytometer (Mindray); viable cells were considered as DiOC6-positive and 7AAD-negative.
The effect of pH on peptide activity in cancer cells was evaluated by the multiway ANOVA followed by Tukey post hoc test. Regarding the comparison of the effect of the medium, we analyzed the data from Figure 6c by comparing RPMI medium and DMEM of the same pH, and statistical significance was assessed using the multiway ANOVA followed by Tukey post hoc test. […]

Row | Substance | Survival [1] | Activity against cancer cells (cell viability) as a function of pH and medium [2] | Overlying serocellular crust of wound ([1]; topical, 1000 times the MIC (∼10 mg/kg) once a day for 7 days, after 20 days)
1 | KKKKLKKILKKLFQFINQLDNQLQDIKKKK-NH2 [LP18] | 100% |  | 
2 | H-HHHHLKKILKKLFQFINQLDNQLQDIHHHH-OH [LP40] |  | pH-dependent activity | 
3 | KKKKLKKILKKLFQFINQLDNQLQDIKQNK-NH2 [LP1] | 100% | pH-dependent activity | less than 10 mm^2
